Measurements as given in patent US6566081B1, “Methods of identifying a compound which modulates the non-transcriptional non-map-kinase induced effects of steroid hormones” (The Brigham and Women's Hospital, Inc., priority 1999, dated 2003).
Entries after “also recorded” stand apart in the source; their conditions may differ.

What was measured:
Type in all cases: cell-based, human
PI3-kinase = PI3-kinase assay on p85 immunoprecipitates of endothelial cell lysates; conditions: for effect on E2-induced PI3-kinase activation: E2 10 nM 20 min, ICI 10 μM, wortmannin 30 nM; for stimulation of PI3-kinase activity: E2/αE2 10 nM, insulin 100 nM
Method: PI3kinase activity in endothelial cell lysates was assayed using the borate thin layer chromatography method, as described.^34 Following a 6 h incubation in serum- and estrogen-deficient medium 199, endothelial cells were treated according to the indicated conditions, washed, and harvested in ice-cold lysis buffer (137 mM NaCl, 20 mM Tris-HCl, pH 7.4, 1 mM CaCl2, 1 mM Mg Cl2, 0.1 mM Na3VO4, 1% NP-40). After pelleting the cell debris, the supernatant was incubated for 1 hour at 4° C. with 5 μL of a rabbit antiserum directed against the p85 regulatory subunit of the PI3-kinase (Upstate Biotechnology, Lake Placid, N.Y.), and immunoprecipitated with the addition of 50 μL of a 1:1 slurry of protein A-agarose for 1 hour at 4° C. Following centrifugation, the immunoprecipitates were washed three times with lysis buffer, three times with 0.1 M Tris-HCl, pH 7.4, 5 mM LiCl, 0.1 mM Na3VO4, followed by two washes with 10 mM Tris-HCl, pH 7.4, 150 mM NaCl, 5 mM EDTA, 0.1 mM Na3VO4.
The immunoprecipitates were then mixed with 50 μL Tris-HCl, pH 7.4, 150 mM NaCl, 5 mM EDTA, 20 μg of phosphatidylinositol (Sigma, Saint Louis, Mo.), 10 μL 100 mM MgCl2 and 5 μL of a 0.88 mM ATP, 20 mM MgCl2 solution, containing 30 μCi of [γ-^32P]ATP (3000 Ci/mmol; NEN Life Science Products, Boston, Mass.). […] The phospholipids were extracted with 160 μL of chloroform/methanol (1:1, v/v). 50 μL of the organic phase, containing the labeled PI3-kinase products were separated by borate thin layer chromatography on glass-backed Silica Gel 60 plates (EM Separations, Gibbstown, N.J.) pretreated with a solution containing 25 mM trans-1,2-diaminocyclohexane-N,N,N′N′-tetraacetic acid (CDTA, Sigma, Saint Louis, Mo.), 66% (v/v) ethanol and 0.06 N NaOH, dried for 1 hour and then baked at 100° C. for 15 minutes. The chromatography was developed with a solution containing 37.5% (v/v) methanol, 30% (v/v) chloroform, 22.5% (v/v) pyridine (Sigma, Saint Louis, Mo.), 1.33% (v/v) formic acid, […] boric acid and 8.5 mM butylated hydroxytoluene (Sigma, Saint Louis, Mo.), briefly dried and exposed to autoradiography.

NO release = assay: Nitrite assay (NO accumulation from endothelial cells); conditions: for effect on E2-induced NO release / production: E2 10 nM 30 min, ICI 10 μM, wortmannin 30 nM; for stimulation of NO release / production (nitrite accumulation): 30 min, E2/αE2 10 nM, insulin 100 nM, acetylcholine
Method: NO accumulation from serum-starved endothelial cells was determined by a modified nitrite assay using 2, 3 diaminonaphtalene as described previously.^33 Fluorescence of 1-(H)-naphtotriazole was measured with excitation and emission wavelengths of 365 and 450 nm, respectively. Standard curves were constructed with known amounts of sodium nitrite. Nonspecific fluorescence was determined in the presence of LNMA (3 mM).

Akt/PKB = assay: Akt kinase assay (immunoprecipitated Akt, GSK-3 peptide); conditions: for stimulation of Akt kinase activity (words): E2/αE2 10 nM, insulin 100 nM
Method: Immunoprecipitated Akt kinase activity was assayed on endothelial cell lysates by using the Aktl/PKBα immunoprecipitation kinase assay kit (Upstate Biotechnology, Lake Placid, N.Y.). Endothelial cells were starved in phenol red-free199 medium with 0.4% estrogen-deprived FBS, treated, washed, and then harvested in ice-cold Buffer A (50 mM Tris-HCl, pH 7.5, 1 mM EDTA, 1 mM EGTA, […] Na3VO4, 0.1% (v/v) 2-mercaptoethanol, 1% Triton X-100, 50 mM sodium fluoride, 5 mM sodium pyrophosphate, 10 mM sodium glycerophosphate, 0.1 mM PMSF, 1 μg/mL of aprotinin, pepstatin, leupeptin and 1 μM microcystin). The cleared cell lysates were incubated for 1 hour at 4° C. with 4 μg/tube of anit-Akt1/PKBα PH domain immunoaffinity purified sheep IgG, after which 50 μL of a 1:1 (v/v) protein G-agarose slurry was added for an additional hour of incubation at 4° C. After centrifugation, the immunoprecipitates were washed three times with Buffer A containing 0.5 M NaCl, then two times with Buffer B (50 mM Tris-HCl, pH 7.5, 0.03% (w/v) Brij-35, 0.1 mM EGTA, 0.1% (v/v) 2-mercaptoethanol), and finally twice with 1×Assay Buffer (20 mM MOPS, pH 7.2, 25 mM β-glycerol phosphate, 5 mM EGTA, 1 mM Na3VO4, 1 mM DTT).
The immunoprecipitates were resuspended in 10 μL of ice-cold 1×Assay Buffer, and were sequentially added: 10 μL of 40 μM PKA inhibitor peptide ([…]-NH2—corresponding to residues 7-23 of human PKA inhibitor), 10 μL of Akt/PKB specific substrate peptide (100 μM) (RPRAATF—corresponding to the phosphorylation site of glycogen synthase kinase-3, specifically targeted by Akt/PKB, but not by other protein kinases such as Rsk-2 and p70 S6 kinase), and 10 μL of [γ-^32P]ATP stock solution (1×Assay Buffer with 500 μM ATP, 75 mM MgCl2, containing 1 μCi/μL [γ^32-P]ATP, 3000 Ci/mmol). The reaction was incubated at 37° C. for 30 minutes, after which 40 μL of the supernatant was mixed with 20 μL of 40% TCA and incubated for 5 minutes at room temperature. 40 μL of each final fraction were spotted onto the center of a 2 cm×2 cm P81 phosphocellulose paper. The assay squares were washed three times with 0.75% phosphoric acid for five minutes at room temperature, then once with acetone. The squares were then transferred to vials containing a liquid scintillation cocktail and read in a scintillation counter. Blank reaction for the detection of the unspecific background were performed by substituting the cell lysate with Buffer A at the beginning of the procedure, and aspecific endogenous phosphorylation of proteins in the sample extract was estimated by substituting in some samples 1×Assay Buffer for the Akt/PKB specific substrate peptide.

Molecule | effect on E2-induced PI3-kinase activation (PI3-kinase) | effect on E2-induced PI3-kinase activation (PI3-kinase; listed as ICI 182,780) | effect on E2-induced NO release / production (NO release) | effect on E2-induced NO release / production (NO release; listed as ICI 182,780) | effect on acetylcholine-induced NO accumulation (NO release; acetylcholine 30 min) | effect on E2-stimulated Akt kinase activity (Akt/PKB; ICI 10 μM, wortmannin 30 nM) | stimulation of PI3-kinase activity (PI3-kinase; 20 min) | stimulation of PI3-kinase activity (PI3-kinase; 20 min, listed as Insulin) | stimulation of NO release / production (nitrite accumulation) (NO release) | stimulation of NO release / production (nitrite accumulation) (NO release; listed as Insulin) | stimulation of Akt kinase activity (words) (Akt/PKB; 20 min) | stimulation of Akt kinase activity (words) (Akt/PKB; 20 min, listed as Insulin) | increase in PI3-kinase activity compared to baseline (PI3-kinase; E2 10 nM, 20 min) | PI3-kinase activity in the initial phase of stimulation (PI3-kinase; E2 10 nM, ≤10 min) | increase in Akt kinase activity after 10 min (Akt/PKB; E2 stimulation, 10 min) [fold] | increase in Akt kinase activity after 20 min (Akt/PKB; E2 stimulation, 20 min) [fold]
C[C@]12CC[C@@H]3c4ccc(O)cc4C[C@@H](CCCCCCCCC[S+]([O-])CCCC(F)(F)C(F)(F)F)[C@H]3[C@@H]1CC[C@@H]2O (stereo partly shown) [ICI 187,780] | full inhibition; also recorded: completely inhibited | completely blocked | completely blocked | prevent | not influenced; also recorded: not affected | nearly completely abolished; also recorded: almost completely inhibited |  |  |  |  |  |  |  |  |  | 
insulin: known activator of the PI3-kinase/Akt pathway |  |  |  |  |  |  | comparable increase | marked activation | able to stimulate | activates nitrite release | substantial increase | marked activation |  |  |  | 
17β-estradiol [E2] |  |  |  |  |  |  | strong activation |  | increases NO release |  | activated; also recorded: stimulated |  | approximately 5 fold | little or no PI3-kinase activity | 1.5 | 2.3
